Results as given in PMC5318439, “The Novel Toll-Like Receptor 2 Agonist SUP3 Enhances Antigen Presentation and T Cell Activation by Dendritic Cells” (Frontiers in Immunology, 2017).
Where a SMILES comes first, the peptide text is derived from it. The star is where a group is joined. X1 = CCCCCCCCCCCCCCNC(=O)OC[C@H](C*)OC(=O)NCCCCCCCCCCCCCC; Palmitoyl = CCCCCCCCCCCCCCCC(=O)*

How the values were obtained:
splenic CD8^+ cDCs = experiment: CD40 and CD86 expression on splenic CD8+ cDCs after i.v. administration; assay type: in vivo, mice; conditions: 2 nmol per mouse i.v., 1 h
Experimental: Figure 4 SUP3 stimulated maturation of CD8^+ conventional dendritic cells (cDCs). (A) Purified CD8^+ cDCs were treated with SUP3 (200 nM) or Pam3 (200 nM) in the presence of granulocyte-macrophage colony-stimulating factor (GM-CSF) (20 ng/mL) for 24 h. The surface expression of costimulatory and major histocompatibility complex (MHC) molecules were then analyzed by flow cytometry. Representative data from three independent experiments were shown. “Isotype” represented relative isotype antibody staining of Pam3 or SUP3 stimulated cells. (B) SUP3 (2 nmol per mouse), Pam3 (2 nmol per mouse), or PBS were i.v. injected into mice for 1 h. Splenic CD8^+ cDCs were enriched, and surface expression of CD40 and CD86 was analyzed by flow cytometry. Representative data from two independent experiments with three mice for each group were shown. (C) Purified CD8^+ cDCs were treated with SUP3 (200 nM) or Pam3 (200 nM) for indicated periods (0~120 min), and western blot analysis was performed with the cell lysate for phosphorylated p65 (p-p65), IκBα, p-ERK, ERK, p-JNK, JNK, p-p38, and p38. Blot of p38 was also regarded as loading control. (D) Purified CD8^+ cDCs were treated with CpG 1668 (20 nM), SUP3 (200 nM), or Pam3 (200 nM) in the presence of GM-CSF (20 ng/mL). Supernatants were harvested 24 and 48 h post-stimulation, and cytokines were measured by ELISA. […]

CD8^+ cDCs = experiment: Cytokine production by purified CD8+ cDCs (ELISA); assay type: cell-based, mice; conditions: 200 nM, GM-CSF 20 ng/mL, 24 and 48 h
Experimental: Splenic DCs (5 × 10^5 cells/mL) were stimulated by Pam3 (200 nM), SUP3 (200 nM), or CpG ODN 1668 (20 nM; Adipogen IAX-200-001) in the GM-CSF (20 ng/mL) supplemented medium for indicated periods. Cell culture supernatants were harvested at indicated time points and stored at −40°C. RAW 264.7 cells and GMDCs were stimulated by lipopolysaccharide (LPS) (20 ng/mL; Adipogen IAX-100-013), Pam3, or SUP3 (both at 200 nM) for 24 h. For in vivo administration, Pam3 (2 nmol per mouse), SUP3 (2 nmol per mouse), or LPS (1 µg per mouse) were intravenously (i.v.) injected via tail veins. Serum was obtained through tail vein bleeding and centrifuged after coagulation and stored at −40°C. Cytokines (IL-6, eBioscience 88-7064; TNFα, eBioscience 88-7324; IL-12p40, BioLegend 431604), chemokine (MIP1α, R&D Systems DY450-05), and total IgM (eBioscience, 88-50470) were quantified by ELISA kits following the instructions of manufacturers.
Figure 4 SUP3 stimulated maturation of CD8^+ conventional dendritic cells (cDCs). […] The surface expression of costimulatory and major histocompatibility complex (MHC) molecules were then analyzed by flow cytometry. […] Splenic CD8^+ cDCs were enriched, and surface expression of CD40 and CD86 was analyzed by flow cytometry. […] Supernatants were harvested 24 and 48 h post-stimulation, and cytokines were measured by ELISA. […]

Tlr2^−/− RAW 264.7 cells = experiment: TNFα production by Tlr2−/− RAW 264.7 cells (TLR2 specificity); assay type: cell-based; conditions: 500 nM, 8 h
Experimental: Tlr2^−/− RAW 264.7 cells were generated by lentiviral CRISPR-Cas9 system as described previously ([36]). Briefly, target guide sequences (5′-[…]-3′, 3′-[…]-5′) designed by Genome Engineering 3.0 were ligated into lentiviral vector lentiCRISPR (Addgene 52961). Then lentiCRISPR as well as packaging plasmids pMD2.G (Addgene 12259) and psPax2 (Addgene 12260) were co-transfected into 293FT cells by CaCl2 (12.5 mM) for virus packaging. Fresh cell culture medium was changed 12 h post-transfection. After another 72 h, 293FT cell culture supernatant containing virus was harvested, filtered, and concentrated. Then, RAW 264.7 cells were infected by the virus (~5 × 10^5 TU/mL) with the presence of 8 µg/mL polybrene (Sigma H9268). […]
Splenic DCs (5 × 10^5 cells/mL) were stimulated by Pam3 (200 nM), SUP3 (200 nM), or CpG ODN 1668 (20 nM; Adipogen IAX-200-001) in the GM-CSF (20 ng/mL) supplemented medium for indicated periods. […] Cytokines (IL-6, eBioscience 88-7064; TNFα, eBioscience 88-7324; IL-12p40, BioLegend 431604), chemokine (MIP1α, R&D Systems DY450-05), and total IgM (eBioscience, 88-50470) were quantified by ELISA kits following the instructions of manufacturers.
Figure 1 Specificity and activity of novel TLR2 agonist SUP3. […] The production of cytokines IL-6 and TNFα in culture supernatant was determined by ELISA. *p < 0.05, ****p < 0.0001, “n.s.” indicates statistically non-significant.

Molecule | expressions of CD40 and CD86 on splenic CD8+ cDCs in vivo (splenic CD8^+ cDCs) | IL-6 and TNFα production by CD8+ cDCs (CD8^+ cDCs) | TNFα secretion by Tlr2−/− RAW cells (Tlr2^−/− RAW 264.7 cells)
CCCCCCCCCCCCCCCC(=O)N[C@@H](CSC[C@@H](COC(=O)NCCCCCCCCCCCCCC)OC(=O)NCCCCCCCCCCCCCC)C(=O)NCC(=O)N[C@@H](CCCCN)C(=O)N[C@@H](CCCCN)C(=O)N[C@@H](CCCCN)C(=O)O [SUP3, (2S,5S,8S,14R,18R)-2,5,8-tris(4-aminobutyl)-4,7,10,13,21-pentaoxo-14-palmitamido-18-((tetradecylcarbamoyl)oxy)-20-oxa-16-thia-3,6,9,12,22-pentaazahexatriacontan-1-oic acid] (Palmitoyl-C(X1)GKKK-OH) | increased | only low levels | no secretion of TNFα
Pam3CSK4 [reference compound] | increased | only low levels | no secretion of TNFα
